Measurements taken from ChEMBL document CHEMBL1144054, “Two new bromophenols from the red alga odonthalia corymbifera” (J Nat Prod, 1999).

Assay: Inhibition of yeast alpha-glucosidase by colorimetric method
Parameters: species or system Saccharomyces cerevisiae

| IC50 | SMILES |
| --- | --- |
| 25 µM | OCc1cc(Br)c(O)c(Oc2c(CO)cc(Br)c(O)c2O)c1Br |
| 0.098 µM | Oc1cc(COCc2cc(O)c(O)c(Br)c2Br)c(Br)c(Br)c1O |
| 89 µM | OCc1cc(O)c(O)c(Br)c1Br [LANOSOL] |
